Test results from PubChem BioAssay (NCI).
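These data come from cells grown in 96-well plates and exposed to compound for 48 hours at five concentrations. Abbreviation: GI50, concentration required for 50% inhibition of growth. The concentration for full growth arrest is given as TGI.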

Assays:
Experiment in all cases: NCI tumour cell line growth inhibition, 48 h
A549 NSCLC = test system: A549 NSCLC
BT-549 breast = test system: BT-549 breast
U251 CNS = test system: U251 CNS
MDA-N = test system: MDA-N
NCI/ADR-RES ovarian = test system: NCI/ADR-RES ovarian
HCT-15 colon = test system: HCT-15 colon
ACHN renal = test system: ACHN renal
SK-OV-3 ovarian = test system: SK-OV-3 ovarian
HS 578T breast = test system: HS 578T breast
CAKI-1 renal = test system: CAKI-1 renal
UO-31 renal = test system: UO-31 renal
OVCAR-4 ovarian = test system: OVCAR-4 ovarian
HL-60(TB) leukemia = test system: HL-60(TB) leukemia
EKVX NSCLC = test system: EKVX NSCLC
MDA-MB-435 = test system: MDA-MB-435
CCRF-CEM leukemia = test system: CCRF-CEM leukemia
SN12C renal = test system: SN12C renal
A498 renal = test system: A498 renal
UACC-257 melanoma = test system: UACC-257 melanoma
SF-268 CNS = test system: SF-268 CNS
IGROV1 ovarian = test system: IGROV1 ovarian
PC-3 prostate = test system: PC-3 prostate
HOP-92 NSCLC = test system: HOP-92 NSCLC
HOP-62 NSCLC = test system: HOP-62 NSCLC
SK-MEL-2 melanoma = test system: SK-MEL-2 melanoma
T-47D breast = test system: T-47D breast
TK-10 renal = test system: TK-10 renal
OVCAR-5 ovarian = test system: OVCAR-5 ovarian
SR leukemia = test system: SR leukemia
RPMI-8226 leukemia = test system: RPMI-8226 leukemia
OVCAR-3 ovarian = test system: OVCAR-3 ovarian
KM12 colon = test system: KM12 colon
NCI-H226 lung = test system: NCI-H226 lung
COLO 205 colon = test system: COLO 205 colon
SF-539 CNS = test system: SF-539 CNS
HCT-116 colon = test system: HCT-116 colon
SNB-19 CNS = test system: SNB-19 CNS
MDA-MB-231 breast = test system: MDA-MB-231 breast
HT29 colon = test system: HT29 colon
RXF 393 renal = test system: RXF 393 renal
NCI-H522 lung = test system: NCI-H522 lung
HCC-2998 colon = test system: HCC-2998 colon
SNB-75 CNS = test system: SNB-75 CNS
MCF7 breast = test system: MCF7 breast
SW-620 colon = test system: SW-620 colon
MALME-3M melanoma = test system: MALME-3M melanoma
SK-MEL-5 melanoma = test system: SK-MEL-5 melanoma
SF-295 CNS = test system: SF-295 CNS
LOX IMVI melanoma = test system: LOX IMVI melanoma
SK-MEL-28 melanoma = test system: SK-MEL-28 melanoma
DU-145 prostate = test system: DU-145 prostate
M14 melanoma = test system: M14 melanoma
MOLT-4 leukemia = test system: MOLT-4 leukemia
UACC-62 melanoma = test system: UACC-62 melanoma
786-0 renal = test system: 786-0 renal
NCI-H23 lung = test system: NCI-H23 lung
OVCAR-8 ovarian = test system: OVCAR-8 ovarian
K-562 leukemia = test system: K-562 leukemia
NCI-H460 lung = test system: NCI-H460 lung
KM20L2 colon = test system: KM20L2 colon
DLD-1 colon = test system: DLD-1 colon
DMS 273 small cell lung = test system: DMS 273 small cell lung
LXFL 529 NSCLC = test system: LXFL 529 NSCLC
SNB-78 CNS = test system: SNB-78 CNS

## NS(=O)(=O)c1ccc(NC(=O)Nc2cccc3ccccc23)cc1
A549 NSCLC
  TGI: > 100 µM
BT-549 breast
  TGI: > 100 µM
U251 CNS
  TGI: 36.2 µM
MDA-N
  TGI: > 100 µM
NCI/ADR-RES ovarian
  TGI: > 100 µM
HCT-15 colon
  TGI: > 100 µM
ACHN renal
  TGI: > 100 µM
SK-OV-3 ovarian
  TGI: > 100 µM
HS 578T breast
  TGI: > 100 µM
CAKI-1 renal
  TGI: > 100 µM
UO-31 renal
  TGI: 31.8 µM
OVCAR-4 ovarian
  TGI: > 100 µM
HL-60(TB) leukemia
  TGI: > 100 µM
EKVX NSCLC
  TGI: 80.8 µM
MDA-MB-435
  TGI: > 100 µM
CCRF-CEM leukemia
  TGI: > 100 µM
SN12C renal
  TGI: > 100 µM
A498 renal
  TGI: 52.2 µM
UACC-257 melanoma
  TGI: > 100 µM
SF-268 CNS
  TGI: 39.3 µM
IGROV1 ovarian
  TGI: > 100 µM
PC-3 prostate
  TGI: 44 µM
HOP-92 NSCLC
  TGI: > 100 µM
HOP-62 NSCLC
  TGI: > 100 µM
SK-MEL-2 melanoma
  TGI: > 100 µM
T-47D breast
  TGI: > 100 µM
TK-10 renal
  TGI: > 100 µM
OVCAR-5 ovarian
  TGI: > 100 µM
SR leukemia
  TGI: > 100 µM
RPMI-8226 leukemia
  TGI: > 100 µM
OVCAR-3 ovarian
  TGI: > 100 µM
KM12 colon
  TGI: > 100 µM
NCI-H226 lung
  TGI: 52.8 µM
COLO 205 colon
  TGI: > 100 µM
SF-539 CNS
  TGI: 50.8 µM
HCT-116 colon
  TGI: > 100 µM
SNB-19 CNS
  TGI: 44.8 µM
MDA-MB-231 breast
  TGI: 41.1 µM
HT29 colon
  TGI: > 100 µM
RXF 393 renal
  TGI: > 100 µM
NCI-H522 lung
  TGI: 34.9 µM
HCC-2998 colon
  TGI: > 100 µM
SNB-75 CNS
  TGI: 57.7 µM
MCF7 breast
  TGI: > 100 µM
SW-620 colon
  TGI: > 100 µM
MALME-3M melanoma
  TGI: > 100 µM
SK-MEL-5 melanoma
  TGI: > 100 µM
SF-295 CNS
  TGI: > 100 µM
LOX IMVI melanoma
  TGI: > 100 µM
SK-MEL-28 melanoma
  TGI: > 100 µM
DU-145 prostate
  TGI: 81.3 µM
M14 melanoma
  TGI: > 100 µM
MOLT-4 leukemia
  TGI: > 100 µM
UACC-62 melanoma
  TGI: 69.4 µM
786-0 renal
  TGI: 38 µM
NCI-H23 lung
  TGI: > 100 µM
OVCAR-8 ovarian
  TGI: 40.6 µM
K-562 leukemia
  TGI: > 100 µM
NCI-H460 lung
  TGI: > 100 µM

## CC(C)(C)c1ccc(OCCOc2ccc(C(C)(C)C)cc2NC=O)c(NC=O)c1
A549 NSCLC
  TGI: > 100 µM
BT-549 breast
  TGI: 32.8 µM
U251 CNS
  TGI: 34.7 µM
MDA-N
  TGI: 27.3 µM
NCI/ADR-RES ovarian
  TGI: 37.7 µM
HCT-15 colon
  TGI: 26.4 µM
ACHN renal
  TGI: > 73.2 µM
SK-OV-3 ovarian
  TGI: > 100 µM
HS 578T breast
  TGI: 42.8 µM
CAKI-1 renal
  TGI: > 67.7 µM
UO-31 renal
  TGI: 30.9 µM
OVCAR-4 ovarian
  TGI: 54.2 µM
HL-60(TB) leukemia
  TGI: > 100 µM
EKVX NSCLC
  TGI: 98 µM
MDA-MB-435
  TGI: 26.9 µM
CCRF-CEM leukemia
  TGI: > 45.3 µM
SN12C renal
  TGI: 30.8 µM
A498 renal
  TGI: 40 µM
UACC-257 melanoma
  TGI: 27.4 µM
SF-268 CNS
  TGI: 65.8 µM
IGROV1 ovarian
  TGI: > 100 µM
PC-3 prostate
  TGI: > 100 µM
HOP-92 NSCLC
  TGI: 23.5 µM
HOP-62 NSCLC
  TGI: 28 µM
SK-MEL-2 melanoma
  TGI: 36.6 µM
T-47D breast
  TGI: > 86 µM
TK-10 renal
  TGI: > 100 µM
OVCAR-5 ovarian
  TGI: 75.5 µM
SR leukemia
  TGI: > 48 µM
RPMI-8226 leukemia
  TGI: 13.6 µM
OVCAR-3 ovarian
  TGI: 36.5 µM
KM12 colon
  TGI: 16.2 µM
NCI-H226 lung
  TGI: 28.1 µM
COLO 205 colon
  TGI: 4.33 µM
SF-539 CNS
  TGI: 21.6 µM
HCT-116 colon
  TGI: 33.5 µM
SNB-19 CNS
  TGI: > 100 µM
MDA-MB-231 breast
  TGI: 40.5 µM
HT29 colon
  TGI: 7.32 µM
RXF 393 renal
  TGI: 28.2 µM
NCI-H522 lung
  TGI: 24.4 µM
HCC-2998 colon
  TGI: 23.5 µM
SNB-75 CNS
  TGI: > 78.7 µM
MCF7 breast
  TGI: 23.2 µM
SW-620 colon
  TGI: > 58.3 µM
MALME-3M melanoma
  TGI: 24.8 µM
SK-MEL-5 melanoma
  TGI: 15.3 µM
SF-295 CNS
  TGI: 25 µM
LOX IMVI melanoma
  TGI: 19.2 µM
SK-MEL-28 melanoma
  TGI: 32.6 µM
DU-145 prostate
  TGI: > 87.9 µM
M14 melanoma
  TGI: 20.7 µM
MOLT-4 leukemia
  TGI: 19.1 µM
UACC-62 melanoma
  TGI: 28.1 µM
786-0 renal
  TGI: 37.8 µM
NCI-H23 lung
  TGI: 40.7 µM
OVCAR-8 ovarian
  TGI: 59.4 µM
K-562 leukemia
  TGI: > 43.7 µM
NCI-H460 lung
  TGI: 34.3 µM

## CCCCCCCC(=O)[O-].N.N.N.N.N.[Co+3].[O-][Cl+3]([O-])([O-])[O-]
A549 NSCLC
  GI50: > 100 µM
  TGI: > 100 µM
KM20L2 colon
  GI50: > 100 µM
  TGI: > 100 µM
U251 CNS
  GI50: > 100 µM
  TGI: > 100 µM
HCT-15 colon
  GI50: > 100 µM
  TGI: > 100 µM
ACHN renal
  GI50: > 100 µM
  TGI: > 100 µM
SK-OV-3 ovarian
  GI50: > 100 µM
  TGI: > 100 µM
DLD-1 colon
  GI50: > 100 µM
  TGI: > 100 µM
UO-31 renal
  GI50: 90.6 µM
  TGI: > 100 µM
OVCAR-4 ovarian
  GI50: > 100 µM
  TGI: > 100 µM
DMS 273 small cell lung
  GI50: > 100 µM
  TGI: > 100 µM
HL-60(TB) leukemia
  GI50: > 100 µM
  TGI: > 100 µM
EKVX NSCLC
  GI50: > 100 µM
  TGI: > 100 µM
CCRF-CEM leukemia
  GI50: > 100 µM
  TGI: > 100 µM
SN12C renal
  GI50: > 100 µM
  TGI: > 100 µM
A498 renal
  GI50: > 100 µM
  TGI: > 100 µM
UACC-257 melanoma
  GI50: > 100 µM
  TGI: > 100 µM
SF-268 CNS
  GI50: > 100 µM
  TGI: > 100 µM
IGROV1 ovarian
  GI50: > 100 µM
  TGI: > 100 µM
HOP-92 NSCLC
  GI50: > 100 µM
  TGI: > 100 µM
HOP-62 NSCLC
  GI50: > 100 µM
  TGI: > 100 µM
SK-MEL-2 melanoma
  GI50: > 100 µM
  TGI: > 100 µM
LXFL 529 NSCLC
  GI50: > 100 µM
  TGI: > 100 µM
TK-10 renal
  GI50: > 100 µM
  TGI: > 100 µM
OVCAR-5 ovarian
  GI50: > 100 µM
  TGI: > 100 µM
SNB-78 CNS
  GI50: > 100 µM
  TGI: > 100 µM
RPMI-8226 leukemia
  GI50: > 100 µM
  TGI: > 100 µM
OVCAR-3 ovarian
  GI50: > 100 µM
  TGI: > 100 µM
KM12 colon
  GI50: > 100 µM
  TGI: > 100 µM
COLO 205 colon
  GI50: > 100 µM
  TGI: > 100 µM
SF-539 CNS
  GI50: > 100 µM
  TGI: > 100 µM
HCT-116 colon
  GI50: > 100 µM
  TGI: > 100 µM
SNB-19 CNS
  GI50: > 100 µM
  TGI: > 100 µM
HT29 colon
  GI50: > 100 µM
  TGI: > 100 µM
NCI-H522 lung
  GI50: > 100 µM
  TGI: > 100 µM
HCC-2998 colon
  GI50: > 100 µM
  TGI: > 100 µM
SNB-75 CNS
  GI50: > 100 µM
  TGI: > 100 µM
SW-620 colon
  GI50: > 100 µM
  TGI: > 100 µM
MALME-3M melanoma
  GI50: > 100 µM
  TGI: > 100 µM
SK-MEL-5 melanoma
  GI50: > 100 µM
  TGI: > 100 µM
SF-295 CNS
  GI50: > 100 µM
  TGI: > 100 µM
LOX IMVI melanoma
  GI50: > 100 µM
  TGI: > 100 µM
SK-MEL-28 melanoma
  GI50: > 100 µM
  TGI: > 100 µM
M14 melanoma
  GI50: > 100 µM
  TGI: > 100 µM
MOLT-4 leukemia
  GI50: 53.5 µM
  TGI: > 100 µM
UACC-62 melanoma
  GI50: > 100 µM
  TGI: > 100 µM
786-0 renal
  GI50: > 100 µM
  TGI: > 100 µM
NCI-H23 lung
  GI50: > 100 µM
  TGI: > 100 µM
OVCAR-8 ovarian
  GI50: > 100 µM
  TGI: > 100 µM
K-562 leukemia
  GI50: > 100 µM
  TGI: > 100 µM
NCI-H460 lung
  GI50: > 100 µM
  TGI: > 100 µM
